Source: publication PMC3983056 (PLoS Pathogens, 2014)
pIC50: −log10 of the molar value. Several values for one entry are separate records, joined by “and”; a condition that tells them apart may be missing. Equal entries are not always repeated. Where two headings read alike, the source gives them in different places.

Key:
[1] = system: latent HIV in resting CD4 T cells from HIV-infected patients on suppressive cART; type: cell-based; details: for HIV RNA avg: 40 nM RMD, one value per donor; for HIV RNA [copies/mil cells] avg: Figure 5
Experimental: (§1) To examine the kinetics of HIV induction, we analyzed cell-associated viral RNA levels at 6, 12, 24, and 48 hours after treatment initiation.
(§2) Lysates were filtered through a Qiashredder (Qiagen).

[2] = Human serum binding by equilibrium dialysis, HPLC/mass spectrometry; type: in vitro ADME; details: read-out: Human serum binding (free fraction)
Text: (DOCX) Click here for additional data file.

[3] = system: latent HIV in memory CD4 T cells from HIV-infected patients on suppressive cART; experiment: Ex vivo activation of HIV transcription, cell-associated HIV RNA, memory CD4 T cells; type: cell-based; details: for HIV RNA avg: Figure 2A, 40 nM RMD, one value per donor
Experimental: as §1, §2

[4] = human, in vivo; cited from earlier work
[5] = system: total class I and II HDAC enzyme activity in resting CD4 T cells; details: pulse RMD 4 hours, VOR 24 hours, PNB 24 hours, 6 to 48 hours
Experimental: Resting CD4 T cells obtained from HIV-infected patients on suppressive cART were incubated with serial dilutions of HDACi in 96-well plates at 10,000 cells/well for indicated time and then lysed by repeated freezing and thawing. Total cellular HDAC activity was measured using the HDAC-Glo I/II assay kit (Promega) according to the manufacturer's protocol.

[6] = system: HIV gag-pol RNA from resting CD4 T cells of a cART-suppressed patient; experiment: Single-genome sequencing of HIV RNA in culture supernatants; type: cell-based; details: 2.5 nM RMD, continuous, day 7
Text: In parallel, we assessed the sequence diversity of HIV proviruses integrated in genomic DNA of resting CD4 T cells from the same culture.
Figure 8 Phylogenetic analysis of HIV sequences expressed ex vivo following the latency reversal. […] Single-genome sequencing was used to analyze patient HIV proviral DNA and plasma RNA at the initiation of treatment (day 0), together with the ex vivo induced HIV RNA in cell culture supernatants at the end of treatment (day 7). […] Identified HIV DNA and RNA sequences were aligned and the phylogenetic tree was constructed using Clustal W and MEAG5.
Single-genome sequencing of a portion of HIV-1 gag-pro-pol amplified from cell culture supernatants or cellular DNA extracts was performed as previously described [34]–[36]. Sequences were aligned using ClustalW and neighbor-joining phylogenetic analysis was performed using MEGA5. Trees were rooted on the subtype B consensus sequence (www.hiv.lanl.gov).

[7] = target: T1, human HDAC-7 (Homo sapiens, UniProt Q8WUI4); experiment: HDAC inhibition assay; type: biochemical
T1 construct: purchased Reaction Biology Corporation (Malvern, PA)

[8] = target: T2, human HDAC-5 (Homo sapiens, UniProt Q9UQL6); experiment: HDAC inhibition assay; type: biochemical
T2 construct: purchased Reaction Biology Corporation (Malvern, PA)

[9] = Clinical systemic exposure; type: in vivo, human
[10] = system: PBMC cultures from HIV-infected patients; experiment: Cytokine induction in PBMC cultures; type: cell-based, human; details: RMD treatment, data not shown
Text: HIV latency reversing agents that would be suitable for the therapeutic use in vivo should not induce non-specific immune activation.

[11] = system: latent HIV in memory CD4 T cells from HIV-infected patients on suppressive cART; details: for HIV RNA avg: 6 days, one value per donor; for extracellular HIV RNA in culture supernatants: memory CD4 T cells
Text: We used HIV RNA in cell culture supernatants as a surrogate marker for virion release from treated cells. We assumed that extracellular virions would accumulate over the course of several days; therefore, the duration of culture was extended to 6 days to maximize assay sensitivity.
(§4) HIV-infected patients participating in the study were selected based on sustained plasma viral load suppression (<50 copies/ml for >12 months), CD4 counts (>350 cells/µL), and absence of co-infection with hepatitis B or C virus (Supplementary Table S1). Clinical laboratory results were reconfirmed 2 weeks before leukapheresis or blood draw. Leukapheresis was conducted for 3–4 hours, and samples were processed within 2 hours after collection. The leukapheresis product was diluted 1∶1 with PBS and layered over Ficoll for isolation of PBMCs. […] Resting CD4 T cells were isolated by first enriching total CD4 T cells (StemCell Technologies) and subsequently depleting HLA-DR-, CD25-, and CD69-positive cells via negative selection (Miltenyi Biotec, Auburn, CA).
(§5) To assess HIV activation by HDACi, up to 5 million CD4 T cells were plated in 24-well plates in 2.5 ml of media, supplemented with antiretrovirals (ARVs) (100 nM elvitegravir and 100–300 nM efavirenz) for the entire duration of culture incubation. HDACi were added at specified concentrations on day 0 and cells or culture supernatants were harvested for the analysis of HIV RNA at the indicated time points (6–48 hours or 6–7 days, respectively). For HDACi pulse treatment, cultures were washed twice using ARV-containing media at 4 or 24 hours after addition of HDACi and incubated with ARVs until harvest. To measure HIV RNA levels, 1 ml of culture supernatant was analyzed by a robotic COBAS AmpliPrep/TaqMan system (Roche Diagnostics, Indianapolis, IN), which extracts total nucleic acid and quantifies HIV RNA in copies per milliliter using the HIV-1 Test, v2.0 kit (Roche Diagnostics). For the measurement of cell-associated HIV RNA levels, cells were washed with PBS, counted, and lysed (Qiagen RLT buffer, 400 µl for every 2 million cells; Qiagen, Venlo, Netherlands). Lysates were filtered through a Qiashredder (Qiagen). Total RNA was prepared from the lysates (400 µl) using a robotic system (QIAsymphony, Qiagen) that incorporates a DNase I digestion step to eliminate cellular DNA. The resulting total RNA was eluted with 200 µl of buffer, diluted to 1 ml with nuclease-free water, and analyzed by COBAS using the HIV-1 Test v2.0 kit. Preparations of both cell-associated RNA and supernatant total nucleic acids were tested for potential contamination with HIV DNA and/or host DNA by performing the PCR amplification in the presence and absence of reverse transcriptase and by a detection of GAPDH-encoding host DNA sequence.
(§6) HIV RNA-induction experiments were conducted using 5 to 6 replicates for every experimental condition, including vehicle-treated controls. Fold induction in HIV RNA levels was calculated as a ratio of mean signals from compound-treated and vehicle (DMSO)-treated control samples from the same donor under identical conditions. […] For experiments using blood-derived resting CD4 T cells, culture supernatants from 3 replicate wells were combined and analyzed using the COBAS system.

[12] = system: resting CD4 T cells from cART-suppressed HIV-infected patients; experiment: Cell activation analysis by flow cytometry, isolated resting CD4 T cells; type: cell-based, human; details: 4-hour pulse RMD
Experimental: For cell activation analysis, either complete PBMC cultures or resting CD4+ T cells isolated from HIV-infected cART-suppressed patients were incubated with the tested agents under specified conditions and were stained with relevant antibodies. All antibodies were purchased from BD Biosciences and included Alexa Fluor 700-labeled antibody to CD4, APC-H7-labeled antibody to CD8, PE-Cy7 -labeled antibody to CD19, PE-labeled antibody to CD69, APC-labeled antibody to CD25, and V450-labeled antibody to HLA-DR. Live cells were gated by forward and side scatter and exclusion of the dead cells by Live/Dead Fixable Aqua Stain (Invitrogen). Marker staining was assessed by flow cytometry analysis on a LSR Fortessa with data processing using FlowJo software.
The surface expression of CD25 and CD69 in viable CD4 cells was analyzed by flow cytometry. Data are mean ± SD of two independent experiments performed with cells isolated from two HIV-infected patients on suppressive cART.

[13] = target: T3, human HDAC-4 (Homo sapiens, UniProt P56524); experiment: HDAC inhibition assay; type: biochemical
T3 construct: purchased Reaction Biology Corporation (Malvern, PA)
Experimental: (§3) Determination of HDACi potency against individual HDAC enzymes was performed at Reaction Biology Corporation (Malvern, PA). In brief, human HDAC-1 to -11 enzymes were incubated with serial dilutions of HDACi and fluorogenic peptide substrates (50 µM) in a 96-well format assay. […] Fluorogenic peptide Boc-Lys(trifluoroacetyl)-AMC was used as a substrate for HDAC enzymes 4, 5, 7, and 9.

[14] = target: T4, human HDAC-1 (Homo sapiens, UniProt Q13547); experiment: HDAC inhibition assay; type: biochemical
T4 construct: purchased Reaction Biology Corporation (Malvern, PA)
Experimental: as §3

[15] = target: T5, human HDAC-10 (Homo sapiens, UniProt Q969S8); experiment: HDAC inhibition assay; type: biochemical
T5 construct: purchased Reaction Biology Corporation (Malvern, PA)
Experimental: as §3

[16] = system: latent HIV in resting CD4 T cells from HIV-infected patients on suppressive cART; experiment: Ex vivo release of extracellular HIV RNA into culture supernatants, resting CD4 T cells; type: cell-based
Experimental: as §4, §5, §6

T2 sequence (Q9UQL6 whole entry): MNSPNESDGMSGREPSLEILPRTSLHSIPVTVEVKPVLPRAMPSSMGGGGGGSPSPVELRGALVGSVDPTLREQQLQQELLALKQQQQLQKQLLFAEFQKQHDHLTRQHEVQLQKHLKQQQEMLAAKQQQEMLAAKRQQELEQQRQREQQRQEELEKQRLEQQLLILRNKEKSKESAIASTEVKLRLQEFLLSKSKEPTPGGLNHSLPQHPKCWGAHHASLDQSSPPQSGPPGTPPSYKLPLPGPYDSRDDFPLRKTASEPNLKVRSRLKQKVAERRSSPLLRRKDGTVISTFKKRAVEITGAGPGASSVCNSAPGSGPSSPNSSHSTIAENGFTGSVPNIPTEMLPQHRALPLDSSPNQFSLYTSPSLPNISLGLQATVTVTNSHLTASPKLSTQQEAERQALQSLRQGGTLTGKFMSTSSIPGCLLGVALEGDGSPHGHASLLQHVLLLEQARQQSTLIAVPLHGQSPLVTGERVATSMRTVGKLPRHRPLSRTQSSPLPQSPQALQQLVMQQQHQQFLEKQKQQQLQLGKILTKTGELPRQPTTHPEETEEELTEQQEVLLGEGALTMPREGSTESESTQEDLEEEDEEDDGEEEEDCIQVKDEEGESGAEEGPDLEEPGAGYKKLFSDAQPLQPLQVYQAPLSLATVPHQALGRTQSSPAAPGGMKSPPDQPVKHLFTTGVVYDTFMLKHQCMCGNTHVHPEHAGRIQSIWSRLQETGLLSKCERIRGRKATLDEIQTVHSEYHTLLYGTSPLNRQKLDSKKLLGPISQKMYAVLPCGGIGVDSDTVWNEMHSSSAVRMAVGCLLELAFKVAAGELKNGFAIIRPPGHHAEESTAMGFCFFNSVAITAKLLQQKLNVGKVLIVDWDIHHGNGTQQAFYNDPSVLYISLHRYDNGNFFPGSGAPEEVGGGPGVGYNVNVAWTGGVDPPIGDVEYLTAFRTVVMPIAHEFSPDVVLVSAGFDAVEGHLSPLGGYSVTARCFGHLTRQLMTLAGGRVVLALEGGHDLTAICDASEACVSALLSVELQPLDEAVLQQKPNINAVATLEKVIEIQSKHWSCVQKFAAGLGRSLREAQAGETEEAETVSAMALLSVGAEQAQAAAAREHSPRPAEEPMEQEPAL
T4 sequence (Q13547 whole entry): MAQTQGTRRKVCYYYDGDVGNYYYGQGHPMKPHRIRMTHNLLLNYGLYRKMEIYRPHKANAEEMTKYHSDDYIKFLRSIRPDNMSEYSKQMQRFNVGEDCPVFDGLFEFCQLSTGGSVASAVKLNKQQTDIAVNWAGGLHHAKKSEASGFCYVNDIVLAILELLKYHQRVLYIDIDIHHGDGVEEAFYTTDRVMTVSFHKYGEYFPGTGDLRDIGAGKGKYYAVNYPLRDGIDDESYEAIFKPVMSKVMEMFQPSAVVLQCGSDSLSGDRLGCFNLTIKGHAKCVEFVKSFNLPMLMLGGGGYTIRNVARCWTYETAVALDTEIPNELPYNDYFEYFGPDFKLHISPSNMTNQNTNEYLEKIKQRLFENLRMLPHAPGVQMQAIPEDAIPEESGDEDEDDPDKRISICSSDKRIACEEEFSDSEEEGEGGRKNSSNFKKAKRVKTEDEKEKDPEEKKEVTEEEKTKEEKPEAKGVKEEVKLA
T5 sequence (Q969S8 whole entry): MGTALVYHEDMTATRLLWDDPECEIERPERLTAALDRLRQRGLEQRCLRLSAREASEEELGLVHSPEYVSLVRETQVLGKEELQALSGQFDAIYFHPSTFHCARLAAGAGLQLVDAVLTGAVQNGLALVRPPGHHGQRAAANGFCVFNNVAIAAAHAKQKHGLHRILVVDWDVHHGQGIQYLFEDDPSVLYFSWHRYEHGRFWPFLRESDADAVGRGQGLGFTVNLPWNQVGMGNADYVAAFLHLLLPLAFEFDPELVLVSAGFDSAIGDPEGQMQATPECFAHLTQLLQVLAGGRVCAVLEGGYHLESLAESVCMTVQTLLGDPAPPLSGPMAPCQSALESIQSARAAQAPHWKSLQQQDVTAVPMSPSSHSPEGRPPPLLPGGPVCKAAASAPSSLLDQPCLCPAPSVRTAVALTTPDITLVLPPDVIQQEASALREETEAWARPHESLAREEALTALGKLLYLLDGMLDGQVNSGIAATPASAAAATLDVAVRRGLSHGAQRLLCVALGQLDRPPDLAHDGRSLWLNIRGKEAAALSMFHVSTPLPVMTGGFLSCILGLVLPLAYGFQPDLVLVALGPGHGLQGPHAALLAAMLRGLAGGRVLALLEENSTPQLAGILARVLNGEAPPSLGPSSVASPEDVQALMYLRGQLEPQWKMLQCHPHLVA
T3 sequence (P56524 whole entry): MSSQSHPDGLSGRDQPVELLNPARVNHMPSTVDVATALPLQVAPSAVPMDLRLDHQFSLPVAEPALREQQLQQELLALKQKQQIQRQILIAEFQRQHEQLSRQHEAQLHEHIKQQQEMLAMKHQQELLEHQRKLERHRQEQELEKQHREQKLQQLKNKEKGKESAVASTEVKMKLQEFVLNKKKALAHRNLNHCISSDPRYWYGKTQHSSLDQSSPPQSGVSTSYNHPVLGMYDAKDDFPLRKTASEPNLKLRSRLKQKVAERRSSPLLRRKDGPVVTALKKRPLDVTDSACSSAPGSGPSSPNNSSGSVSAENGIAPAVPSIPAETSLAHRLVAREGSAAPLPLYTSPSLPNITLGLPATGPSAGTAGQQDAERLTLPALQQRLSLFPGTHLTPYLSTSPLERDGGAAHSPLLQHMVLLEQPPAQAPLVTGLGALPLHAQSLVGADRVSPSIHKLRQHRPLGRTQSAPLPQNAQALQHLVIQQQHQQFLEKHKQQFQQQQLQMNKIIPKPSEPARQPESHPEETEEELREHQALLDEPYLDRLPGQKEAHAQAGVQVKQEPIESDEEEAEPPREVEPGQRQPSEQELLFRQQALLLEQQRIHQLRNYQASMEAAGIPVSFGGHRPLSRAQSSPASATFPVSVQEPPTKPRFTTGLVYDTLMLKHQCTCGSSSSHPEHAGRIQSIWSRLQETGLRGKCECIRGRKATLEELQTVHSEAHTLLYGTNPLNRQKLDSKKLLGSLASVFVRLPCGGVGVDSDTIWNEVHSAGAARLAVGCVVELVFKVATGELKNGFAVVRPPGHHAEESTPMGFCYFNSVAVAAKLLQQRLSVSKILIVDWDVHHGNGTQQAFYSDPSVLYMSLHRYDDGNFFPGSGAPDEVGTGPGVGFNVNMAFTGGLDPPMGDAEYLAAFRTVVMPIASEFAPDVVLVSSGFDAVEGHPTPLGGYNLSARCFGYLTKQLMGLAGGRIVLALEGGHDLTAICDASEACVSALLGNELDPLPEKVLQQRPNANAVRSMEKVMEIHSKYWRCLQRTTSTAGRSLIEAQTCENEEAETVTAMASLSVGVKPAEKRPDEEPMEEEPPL
T1 sequence (Q8WUI4 whole entry): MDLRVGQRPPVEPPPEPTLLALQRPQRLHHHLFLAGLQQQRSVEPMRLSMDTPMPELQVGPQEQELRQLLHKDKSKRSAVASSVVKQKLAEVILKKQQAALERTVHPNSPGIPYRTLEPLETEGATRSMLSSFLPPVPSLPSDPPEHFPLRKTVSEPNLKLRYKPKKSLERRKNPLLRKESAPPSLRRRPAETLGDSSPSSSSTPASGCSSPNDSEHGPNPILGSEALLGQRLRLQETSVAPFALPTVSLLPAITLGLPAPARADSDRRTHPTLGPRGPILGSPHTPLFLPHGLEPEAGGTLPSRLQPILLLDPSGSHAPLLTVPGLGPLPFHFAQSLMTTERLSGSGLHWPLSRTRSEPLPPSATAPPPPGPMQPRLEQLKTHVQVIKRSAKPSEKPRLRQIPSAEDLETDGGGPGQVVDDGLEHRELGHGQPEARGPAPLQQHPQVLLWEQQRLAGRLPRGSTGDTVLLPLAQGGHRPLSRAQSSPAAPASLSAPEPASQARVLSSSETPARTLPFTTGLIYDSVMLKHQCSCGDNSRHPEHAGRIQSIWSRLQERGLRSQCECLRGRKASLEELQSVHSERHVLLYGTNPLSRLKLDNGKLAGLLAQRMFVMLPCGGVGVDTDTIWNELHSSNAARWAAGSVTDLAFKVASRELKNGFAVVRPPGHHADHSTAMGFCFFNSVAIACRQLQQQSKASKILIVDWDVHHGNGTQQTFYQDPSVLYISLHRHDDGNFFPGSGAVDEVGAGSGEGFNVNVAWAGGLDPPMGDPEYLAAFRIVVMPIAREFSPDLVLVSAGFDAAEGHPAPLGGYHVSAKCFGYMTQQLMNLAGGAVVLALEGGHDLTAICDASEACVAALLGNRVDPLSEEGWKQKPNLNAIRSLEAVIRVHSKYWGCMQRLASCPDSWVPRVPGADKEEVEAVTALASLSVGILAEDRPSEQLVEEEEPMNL

C/C=C1\NC(=O)[C@H]2CSSCC/C=C/[C@H](CC(=O)N[C@H](C(C)C)C(=O)N2)OC(=O)[C@H](C(C)C)NC1=O [RMD, romidepsin]
HIV RNA avg ([1]; Figure 2B, 6hr): 9642 copies/mil cells and 324 copies/mil cells and 14747 copies/mil cells and 6687 copies/mil cells and 2352 copies/mil cells
HIV RNA avg ([1]; Figure 2B, 12hr): 6663 copies/mil cells and 352 copies/mil cells and 13013 copies/mil cells and 9057 copies/mil cells and 2763 copies/mil cells
HIV RNA avg ([1]; Figure 2B, 24hr): 8902 copies/mil cells and 542 copies/mil cells and 17191 copies/mil cells and 14960 copies/mil cells and 4744 copies/mil cells
HIV RNA avg ([1]; Figure 2B, 48hr): 3882 copies/mil cells and 831 copies/mil cells and 21497 copies/mil cells and 14409 copies/mil cells and 7107 copies/mil cells
HIV RNA avg ([1]; Figure 4, 6 hours): 6481 copies/mil cells and 2385 copies/mil cells
HIV RNA avg ([1]; Figure 4, 24 hours): 15888 copies/mil cells and 7188 copies/mil cells
HIV RNA avg ([1]; Figure 4, 48 hours): 8834 copies/mil cells and 9481 copies/mil cells
HIV RNA [copies/mil cells] avg ([1]; 3.5 nM RMD, 6 hours, donor 6): 4270 copies/mil cells
HIV RNA [copies/mil cells] avg ([1]; 3.5 nM RMD, 6 hours, donor 7): 3321 copies/mil cells
HIV RNA [copies/mil cells] avg ([1]; 3.5 nM RMD, 6 hours, donor 8): 816 copies/mil cells
HIV RNA [copies/mil cells] avg ([1]; 3.5 nM RMD, 12 hours, donor 6): 3943 copies/mil cells
HIV RNA [copies/mil cells] avg ([1]; 3.5 nM RMD, 12 hours, donor 7): 2314 copies/mil cells
HIV RNA [copies/mil cells] avg ([1]; 3.5 nM RMD, 12 hours, donor 8): 526 copies/mil cells
HIV RNA [copies/mil cells] avg ([1]; 3.5 nM RMD, 24 hours, donor 6): 4673 copies/mil cells
HIV RNA [copies/mil cells] avg ([1]; 3.5 nM RMD, 24 hours, donor 7): 2633 copies/mil cells
HIV RNA [copies/mil cells] avg ([1]; 3.5 nM RMD, 24 hours, donor 8): 586 copies/mil cells
HIV RNA [copies/mil cells] avg ([1]; 3.5 nM RMD, 48 hours, donor 6): 3640 copies/mil cells
HIV RNA [copies/mil cells] avg ([1]; 3.5 nM RMD, 48 hours, donor 7): 4009 copies/mil cells
HIV RNA [copies/mil cells] avg ([1]; 3.5 nM RMD, 48 hours, donor 8): 769 copies/mil cells
HIV RNA [copies/mil cells] avg ([1]; 15 nM RMD, 6 hours, donor 6): 9276 copies/mil cells
HIV RNA [copies/mil cells] avg ([1]; 15 nM RMD, 6 hours, donor 7): 5400 copies/mil cells
HIV RNA [copies/mil cells] avg ([1]; 15 nM RMD, 6 hours, donor 8): 2254 copies/mil cells
HIV RNA [copies/mil cells] avg ([1]; 15 nM RMD, 12 hours, donor 6): 15172 copies/mil cells
HIV RNA [copies/mil cells] avg ([1]; 15 nM RMD, 12 hours, donor 7): 4260 copies/mil cells
HIV RNA [copies/mil cells] avg ([1]; 15 nM RMD, 12 hours, donor 8): 1826 copies/mil cells
HIV RNA [copies/mil cells] avg ([1]; 15 nM RMD, 24 hours, donor 6): 24438 copies/mil cells
HIV RNA [copies/mil cells] avg ([1]; 15 nM RMD, 24 hours, donor 7): 9787 copies/mil cells
HIV RNA [copies/mil cells] avg ([1]; 15 nM RMD, 24 hours, donor 8): 4270 copies/mil cells
HIV RNA [copies/mil cells] avg ([1]; 15 nM RMD, 48 hours, donor 6): 19207 copies/mil cells
HIV RNA [copies/mil cells] avg ([1]; 15 nM RMD, 48 hours, donor 7): 13754 copies/mil cells
HIV RNA [copies/mil cells] avg ([1]; 15 nM RMD, 48 hours, donor 8): 3470 copies/mil cells
HIV RNA [copies/mil cells] avg ([1]; 45 nM RMD, 6 hours, donor 6): 14747 copies/mil cells
HIV RNA [copies/mil cells] avg ([1]; 45 nM RMD, 6 hours, donor 7): 6687 copies/mil cells
HIV RNA [copies/mil cells] avg ([1]; 45 nM RMD, 6 hours, donor 8): 2352 copies/mil cells
HIV RNA [copies/mil cells] avg ([1]; 45 nM RMD, 12 hours, donor 6): 13013 copies/mil cells
HIV RNA [copies/mil cells] avg ([1]; 45 nM RMD, 12 hours, donor 7): 9057 copies/mil cells
HIV RNA [copies/mil cells] avg ([1]; 45 nM RMD, 12 hours, donor 8): 2763 copies/mil cells
HIV RNA [copies/mil cells] avg ([1]; 45 nM RMD, 24 hours, donor 6): 17191 copies/mil cells
HIV RNA [copies/mil cells] avg ([1]; 45 nM RMD, 24 hours, donor 7): 14960 copies/mil cells
HIV RNA [copies/mil cells] avg ([1]; 45 nM RMD, 24 hours, donor 8): 4744 copies/mil cells
HIV RNA [copies/mil cells] avg ([1]; 45 nM RMD, 48 hours, donor 6): 21497 copies/mil cells
HIV RNA [copies/mil cells] avg ([1]; 45 nM RMD, 48 hours, donor 7): 14409 copies/mil cells
HIV RNA [copies/mil cells] avg ([1]; 45 nM RMD, 48 hours, donor 8): 7107 copies/mil cells
induction of HIV transcription ([1]; resting CD4 T cells, 3.5 nM RMD for 4 hours): minimal induction
increase in intracellular HIV RNA levels versus vehicle ([1]; resting CD4 T cells, 40 nM RMD for 4 hours, peak between 24 and 48 hours): 6 fold
persistence of intracellular HIV RNA induction ([1]; resting CD4 T cells, pulse RMD 4 hours, VOR 24 hours, PNB 24 hours, 6 to 48 hours): persisted throughout the 48-hour incubation period
fraction unbound [2]: 0.08
HIV RNA avg ([3]; 6hr): 164 copies/mil cells and 924 copies/mil cells and 4345 copies/mil cells and 5330 copies/mil cells and 714 copies/mil cells
HIV RNA avg ([3]; 12hr): 222 copies/mil cells and 562 copies/mil cells and 5634 copies/mil cells and 3147 copies/mil cells and 922 copies/mil cells
HIV RNA avg ([3]; 24hr): 702 copies/mil cells and 1193 copies/mil cells and 7541 copies/mil cells and 2530 copies/mil cells and 1320 copies/mil cells
HIV RNA avg ([3]; 48hr): 2153 copies/mil cells and 3839 copies/mil cells and 30568 copies/mil cells and 3060 copies/mil cells and 1406 copies/mil cells
increase in intracellular HIV RNA levels versus vehicle ([3]; memory CD4 T cells, 40 nM RMD for 4 hours, peak between 24 and 48 hours): 6 fold
most common adverse reactions [4]: thrombocytopenia, neutropenia, lymphopenia, nausea, and fatigue
persistence of inhibition of cell-associated HDAC activity [5]: persisted throughout the 48-hour incubation period
sequences of HIV RNA collected in culture supernatants [6]: 4
pIC50 [7]: 5.47
pIC50 [8]: 5.94
Free drug concentration, clinical systemic exposure ([9]; at Cmax, RMD 14 mg/m^2 i.v., VOR 400 mg p.o.): 56 nM
Fraction of clinical exposure ([9]; ratio of free drug concentration in cell culture media (RMD 40 nM, VOR 1,000 nM) and in serum of clinically treated patients): 39%
induction of IFN-α, IFN-γ, TNF-α, TGF-β, IL-2, IL-7 or other cytokines [10]: no significant induction
HIV RNA avg ([11]; Figure 3A, 5 nM RMD): 1476 copies/mil cells and 10908 copies/mil cells and 138 copies/mil cells and 222 copies/mil cells and 322 copies/mil cells and 41.9 copies/mil cells and 73 copies/mil cells and 313.5 copies/mil cells
HIV RNA avg ([11]; Figure 3A, 20 nM RMD): 68 copies/mil cells and 712 copies/mil cells and 1346 copies/mil cells and 3086 copies/mil cells and 1361 copies/mil cells and 157 copies/mil cells and 732 copies/mil cells and 4776 copies/mil cells
HIV RNA avg ([11]; Figure 3B, 5 nM RMD): 1032 copies/mil cells and 1674 copies/mil cells and 1740 copies/mil cells and 1435 copies/mil cells and 1299 copies/mil cells and 1832 copies/mil cells and 6659 copies/mil cells and 1420 copies/mil cells and 8934 copies/mil cells and 205 copies/mil cells and 148 copies/mil cells and 1219 copies/mil cells
High-responding patient; HIV RNA [copies/mL] ([11]; Figure 7, 0.093nM RMD, donor 29, experiments 1-3): 34 copies/mL and 36 copies/mL and 64 copies/mL
Low-responding patient; HIV RNA [copies/mL] ([11]; Figure 7, 0.093nM RMD, donor 33, experiments 1-3): 20 copies/mL and 28 copies/mL
extracellular HIV RNA in culture supernatants ([11]; 5 nM RMD continuous 6 days): detection of extracellular HIV RNA in memory CD4 T-cell cultures from the majority of tested donors
extracellular HIV RNA in culture supernatants ([11]; 5 and 20 nM RMD for 4 hours, day 6): increased extracellular HIV RNA
fraction of CD69-positive cells [12]: minimal increases
pIC50 [13]: 6.50
pIC50 [14]: 9.99
pIC50 [15]: 9.88
HIV RNA ([16]; Figure 3C, 2.5 nM RMD, 7 days, one value per donor): 1205 copies/mL and 20 copies/mL and 2949 copies/mL and 560 copies/mL and 341 copies/mL and 86 copies/mL and 137 copies/mL
donors with induced HIV RNA release ([16]; resting CD4 T cells, 2.5 nM RMD continuous 6 days): 6 of 8
HIV RNA in culture supernatants, longitudinal samples ([16]; resting CD4 T cells, 7 days continuous RMD, high-responding patient, three longitudinal samples): robust and reproducible dose-dependent HIV RNA increase
longitudinal samples with concentration-dependent effect on viral expression ([16]; resting CD4 T cells, 7 days continuous RMD, low-responding patient): 2 of 3
